Measured values reported in patent publication US8394963B2, “Process for the preparation of esomeprazole magnesium dihydrate” (Cipla Limited, priority 2007, dated 2013).

Test: Solubility checked using 0.1 g of the sample at 25-30° C.
Assay type: physicochemical
Details: for Solubility (volume of solvent): 0.1 g of the sample at 25-30° C.
Description: Polymorphs of a compound differ in physical properties such as crystal structure, dissolution and particle size.

Solubility (volume of solvent) (Acetone) | Solubility (volume of solvent) (Ethyl acetate) | Solubility (volume of solvent) (Isopropyl acetate) | Solubility (volume of solvent) (Toluene) | Solubility, comparison of the polymorphic forms (Form II compared with Form I of thio intermediate (compound III)) | Compound
2.0 mL | 4.6 mL | 10.0 mL | 8.4 mL | – | COc1ccc2[nH]c(SCc3ncc(C)c(OC)c3C)nc2c1 [Form I, 5-methoxy-2-[[(4-methoxy-3,5-dimethyl-2-pyridinyl)-methyl]thio]-1H-benzimidazole, reference compound]
4.6 mL | 12.0 mL | 13.0 mL | 15.0 mL | less soluble than Form I | COc1ccc2[nH]c(SCc3ncc(C)c(OC)c3C)nc2c1 [Form II, 5-methoxy-2-[[(4-methoxy-3,5-dimethyl-2-pyridinyl)-methyl]thio]-1H-benzimidazole]
